# Results reported in article PMC10017709, “Structural basis of selective cannabinoid CB2 receptor activation” (Nature Communications, 2023).
# Values joined by “and” are separate entries in the source; they are usually repeats but may differ in a detail not shown here. Identical values can stand only once.
# Columns and labels:
# CB1R D266ECL2E [1] = molecular target: T1, CB1R D266ECL2E (Homo sapiens, UniProt P21554, D266E); test: [3H]CP55,940 displacement assay, CB1R D266E mutant; type: binding
# T1 construct: The WT CB1R and CB2R genes were subcloned into vector pcDNA3.1; HA signal peptide (N); expressed in transfected cells; host or cells: HEK293T (transient, membrane homogenates)
# CB1R I267ECL2L [2] = molecular target: T2, CB1R I267ECL2L (Homo sapiens, UniProt P21554, I267L); test: [3H]CP55,940 displacement assay, CB1R I267L mutant; type: binding
# CB1R D266ECL2E [3] = molecular target: T1, CB1R D266ECL2E; test: [35S]GTPγS assay, CB1R D266E mutant; type: biochemical; details: CB1R D266E; 10 µM agonist
# CB1R QuadrupleTM1,7 [4] = test: [35S]GTPγS assay, CB1R quadruple mutant; type: biochemical, human; details: CB1R Quadruple TM1,7; 10 µM agonist
# CB2R-Quadruple^TM1,7 = CB2R-Quadruple^TM1,7 (Homo sapiens, UniProt P34972, C40S/K279T/K33Q/V36I); test: [35S]GTPγS assay, CB2R quadruple mutant; type: biochemical
# CB2R-L182^ECL2I = CB2R-L182^ECL2I (Homo sapiens, UniProt P34972, L182I); test: [35S]GTPγS assay, CB2R L182I mutant; type: biochemical
# CB1R-H270^ECL2L [5] = molecular target: T3, CB1R-H270^ECL2L (Homo sapiens, UniProt P21554, H270L); test: [35S]GTPγS assay, CB1R H270L mutant; type: biochemical; details: CB1R H270L; 10 µM agonist
# CB2R-V261^6.51L = CB2R-V261^6.51L (Homo sapiens, UniProt P34972, V261L); test: [35S]GTPγS assay, CB2R V261L mutant; type: biochemical; details: for [35S]GTPγS binding: V2616.51L, individual replicates
# hCB2R = molecular target: T4, hCB2R (Homo sapiens, UniProt P34972); test: [3H]RO6957022 competition association assay; type: binding
# T4 construct: host or cells: CHO-K1 (CHOK1_hCB2bgal, PathHunter), membranes
# hCB1R WT [6] = molecular target: T5, hCB1R WT (Homo sapiens, UniProt P21554); test: [35S]GTPγS G protein activation assay, CB1R WT; type: biochemical; details: CB1R WT; 10 µM agonist
# CB2R-F117^3.36A = CB2R-F117^3.36A (Homo sapiens, UniProt P34972, F117A); test: [35S]GTPγS assay, CB2R F117A mutant; type: biochemical
# CB1R-L359^6.51V = CB1R-L359^6.51V (Homo sapiens, UniProt P21554, L359V); test: [3H]CP55,940 displacement assay, CB1R L359V mutant; type: binding
# CB2R-E181^ECL2D = CB2R-E181^ECL2D (Homo sapiens, UniProt P34972, E181D); test: [35S]GTPγS assay, CB2R E181D mutant; type: biochemical
# hCB1R WT [7] = molecular target: T5, hCB1R WT; test: [3H]CP55,940 displacement assay, CB1R WT; type: binding
# CB2R WT = CB2R WT (Homo sapiens, UniProt P34972); test: [35S]GTPγS G protein activation assay, CB2R WT; type: biochemical; details: for Emax: CB2R WT
# CB2R-S285^7.39A = CB2R-S285^7.39A (Homo sapiens, UniProt P34972, S285A); test: [35S]GTPγS assay, CB2R S285A mutant; type: biochemical
# CB1R I267ECL2L [8] = molecular target: T2, CB1R I267ECL2L; test: [35S]GTPγS assay, CB1R I267L mutant; type: biochemical; details: CB1R I267L; 10 µM agonist
# CB1R-H270^ECL2L [9] = molecular target: T3, CB1R-H270^ECL2L; test: [3H]CP55,940 displacement assay, CB1R H270L mutant; type: binding
# CB2R-I110^3.29L = CB2R-I110^3.29L (Homo sapiens, UniProt P34972, I110L); test: [35S]GTPγS assay, CB2R I110L mutant; type: biochemical; details: for [35S]GTPγS binding: I1103.29L, individual replicates
# CB1R QuadrupleTM1,7 [10] = molecular target: T6, CB1R QuadrupleTM1,7 (Homo sapiens, UniProt P21554, I119V/Q116K/S123C/T377K); test: [3H]CP55,940 displacement assay, CB1R quadruple mutant; type: binding
# T6 construct: The WT CB1R and CB2R genes were subcloned into vector pcDNA3.1; HA signal peptide (N); expressed in transfected cells; host or cells: HEK293T (transient, membrane homogenates)
# CB2R-I110^3.29A = CB2R-I110^3.29A (Homo sapiens, UniProt P34972, I110A); test: [35S]GTPγS assay, CB2R I110A mutant; type: biochemical; details: for [35S]GTPγS binding: I1103.29A, individual replicates
# CB2R-L185^ECL2H = CB2R-L185^ECL2H (Homo sapiens, UniProt P34972, L185H); test: [35S]GTPγS assay, CB2R L185H mutant; type: biochemical
# CB2R-H95^2.65A = CB2R-H95^2.65A (Homo sapiens, UniProt P34972, H95A); test: [35S]GTPγS assay, CB2R H95A mutant; type: biochemical
# Chain of CB2R-H95^2.65A (P34972 whole entry H95A): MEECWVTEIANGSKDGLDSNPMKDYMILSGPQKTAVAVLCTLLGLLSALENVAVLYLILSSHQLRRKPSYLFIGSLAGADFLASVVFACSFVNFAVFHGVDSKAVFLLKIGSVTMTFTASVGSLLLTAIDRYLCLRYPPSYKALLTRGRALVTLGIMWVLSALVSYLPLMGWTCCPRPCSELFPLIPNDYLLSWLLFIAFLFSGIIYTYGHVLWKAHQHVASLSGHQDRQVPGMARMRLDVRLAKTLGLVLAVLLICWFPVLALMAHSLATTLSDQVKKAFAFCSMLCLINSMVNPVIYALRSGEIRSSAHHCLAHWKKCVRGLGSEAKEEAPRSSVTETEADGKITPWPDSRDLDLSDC
# Chain of CB2R-F117^3.36A (P34972 whole entry F117A): as the sequence (P34972 whole entry H95A) above, with A95H, F117A counted along it
# Chain of CB2R-S285^7.39A (P34972 whole entry S285A): as the sequence (P34972 whole entry H95A) above, with A95H, S285A counted along it
# Chain of CB1R-L359^6.51V (P21554 whole entry L359V): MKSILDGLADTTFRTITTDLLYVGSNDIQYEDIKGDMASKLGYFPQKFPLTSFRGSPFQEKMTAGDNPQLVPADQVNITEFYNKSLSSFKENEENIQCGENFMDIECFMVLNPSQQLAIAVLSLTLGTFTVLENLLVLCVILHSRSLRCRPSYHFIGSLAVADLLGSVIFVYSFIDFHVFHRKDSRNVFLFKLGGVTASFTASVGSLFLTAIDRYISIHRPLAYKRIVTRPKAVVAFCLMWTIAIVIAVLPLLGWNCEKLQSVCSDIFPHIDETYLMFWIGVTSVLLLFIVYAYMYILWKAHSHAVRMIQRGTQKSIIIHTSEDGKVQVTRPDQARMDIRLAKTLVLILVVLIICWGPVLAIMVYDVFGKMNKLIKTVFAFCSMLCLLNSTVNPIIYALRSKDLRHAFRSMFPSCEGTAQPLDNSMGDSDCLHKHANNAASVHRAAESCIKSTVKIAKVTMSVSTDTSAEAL
# T6 sequence (P21554 whole entry Q116K/I119V/S123C/T377K): as the sequence (P21554 whole entry L359V) above, with Q116K, I119V, S123C, V359L, T377K counted along it
# T2 sequence (P21554 whole entry I267L): as the sequence (P21554 whole entry L359V) above, with I267L, V359L counted along it
# Chain of CB2R-I110^3.29L (P34972 whole entry I110L): as the sequence (P34972 whole entry H95A) above, with A95H, I110L counted along it
# Chain of CB2R WT (P34972 whole entry): as the sequence (P34972 whole entry H95A) above, with A95H counted along it
# Chain of CB2R-I110^3.29A (P34972 whole entry I110A): as the sequence (P34972 whole entry H95A) above, with A95H, I110A counted along it
# Chain of CB2R-V261^6.51L (P34972 whole entry V261L): as the sequence (P34972 whole entry H95A) above, with A95H, V261L counted along it
# T5 sequence (P21554 whole entry): as the sequence (P21554 whole entry L359V) above, with V359L counted along it
# T1 sequence (P21554 whole entry D266E): as the sequence (P21554 whole entry L359V) above, with D266E, V359L counted along it
# T3 sequence (P21554 whole entry H270L): as the sequence (P21554 whole entry L359V) above, with H270L, V359L counted along it
# Chain of CB2R-Quadruple^TM1,7 (P34972 whole entry K33Q/V36I/C40S/K279T): as the sequence (P34972 whole entry H95A) above, with K33Q, V36I, C40S, A95H, K279T counted along it
# T4 sequence (P34972 whole entry): as the sequence (P34972 whole entry H95A) above, with A95H counted along it
# Chain of CB2R-E181^ECL2D (P34972 whole entry E181D): as the sequence (P34972 whole entry H95A) above, with A95H, E181D counted along it
# Chain of CB2R-L182^ECL2I (P34972 whole entry L182I): as the sequence (P34972 whole entry H95A) above, with A95H, L182I counted along it
# Chain of CB2R-L185^ECL2H (P34972 whole entry L185H): as the sequence (P34972 whole entry H95A) above, with A95H, L185H counted along it
smiles,measurement,setting,value
CCCCCCC(C)(C)c1cc(OC)c([C@@H]2C=C(CO)[C@@H]3C[C@H]2C3(C)C)c(OC)c1 [HU308],"Displacement (%) of [3H]CP55,940",CB1R D266ECL2E [1],34 ± 5%
same,"percentage specific [3H]CP55,940 binding",CB1R D266ECL2E [1],73.61 percentage and 56.25 percentage and 67.45 percentage
same,"Displacement (%) of [3H]CP55,940",CB1R I267ECL2L [2],-7 ± 19%
same,"percentage specific [3H]CP55,940 binding",CB1R I267ECL2L [2],143.22 percentage and 82.61 percentage and 94.20 percentage
same,Agonist-mediated activation,CB1R D266ECL2E [3],0.8 ± 0.1 fold over its basal
same,Agonist-mediated activation,"CB1R QuadrupleTM1,7 [4]",0.9 ± 0.0 fold over its basal
same,Emax,"CB2R-Quadruple^TM1,7",1 ± 9%
same,"activation of CB2R-Quadruple^TM1,7","CB2R-Quadruple^TM1,7",completely lost their ability to activate
same,Emax,CB2R-L182^ECL2I,10 ± 7%
same,Agonist-mediated activation,CB1R-H270^ECL2L [5],1.2 ± 0.1 fold over its basal
same,Emax,CB2R-V261^6.51L,26 ± 7%
same,drop in potency compared to WT,"CB2R-V261^6.51L; V261L mutant vs WT, [35S]GTPγS",more than 120 fold
same,[35S]GTPγS binding,CB2R-V261^6.51L; log [ligand] (M) -5,38.70 percentage of WT and 22.83 percentage of WT and 16.52 percentage of WT
same,[35S]GTPγS binding,CB2R-V261^6.51L; log [ligand] (M) -6,9.87 percentage of WT and 8.25 percentage of WT and -4.25 percentage of WT
same,[35S]GTPγS binding,CB2R-V261^6.51L; log [ligand] (M) -7,4.21 percentage of WT and 12.98 percentage of WT and 17.88 percentage of WT
same,[35S]GTPγS binding,CB2R-V261^6.51L; log [ligand] (M) -8,19.13 percentage of WT and 1.74 percentage of WT and -11.50 percentage of WT
same,[35S]GTPγS binding,CB2R-V261^6.51L; log [ligand] (M) -9,9.08 percentage of WT and 5.95 percentage of WT and 6.43 percentage of WT
same,[35S]GTPγS binding,CB2R-V261^6.51L; log [ligand] (M) -10,7.31 percentage of WT and 13.50 percentage of WT and 10.09 percentage of WT
same,ET (engagement time),hCB2R,143 s and 143 ± 47.9 s
same,Agonist-mediated activation,hCB1R WT [6],0.8 ± 0.0 fold over its basal
same,Emax,CB2R-F117^3.36A,5 ± 11%
same,[35S]GTPγS binding,"CB2R-F117^3.36A; F1173.36A, log [ligand] (M) -5, individual replicates",-12.18 percentage of WT and 25.21 percentage of WT and 1.54 percentage of WT
same,"percentage specific [3H]CP55,940 binding",CB1R-L359^6.51V,49.24 percentage and 48.12 percentage and 78.61 percentage
same,Emax,CB2R-E181^ECL2D,32 ± 3%
same,"Displacement (%) of [3H]CP55,940",hCB1R WT [7],6 ± 7%
same,"percentage specific [3H]CP55,940 binding",hCB1R WT [7],78.66 percentage and 99.84 percentage and 102.02 percentage
same,Emax,CB2R WT; maximum effect at 10 µM compared to WT (Suppl. Table 6),105 ± 3%
same,Emax,"CB2R WT; maximum effect compared to CP55,940",91 ± 8%
same,"[35S]GTPγS binding, percentage of WT","CB2R WT; WT, log [ligand] (M) -10, individual replicates",12.69 percentage of WT and 0.12 percentage of WT and -18.99 percentage of WT and 12.94 percentage of WT and 1.90 percentage of WT and -10.30 percentage of WT and -18.00 percentage of WT and 0.09 percentage of WT and 9.81 percentage of WT and 3.21 percentage of WT
same,"[35S]GTPγS binding, percentage of CP55,940","CB2R WT; log [agonist] (M) -5, individual replicates",84.84% and 81.20% and 107.18%
same,"[35S]GTPγS binding, percentage of CP55,940","CB2R WT; log [agonist] (M) -6, individual replicates",42.88% and 70.07% and 64.55%
same,"[35S]GTPγS binding, percentage of CP55,940","CB2R WT; log [agonist] (M) -7, individual replicates",59.80% and 30.89% and 31.02%
same,"[35S]GTPγS binding, percentage of CP55,940","CB2R WT; log [agonist] (M) -8, individual replicates",26.43% and 5.08% and 10.60%
same,"[35S]GTPγS binding, percentage of CP55,940","CB2R WT; log [agonist] (M) -9, individual replicates",-10.38% and -5.63% and -15.53%
same,"[35S]GTPγS binding, percentage of CP55,940","CB2R WT; log [agonist] (M) -10, individual replicates",1.23% and -8.38% and 14.06%
same,Emax,CB2R-S285^7.39A,65 ± 18%
same,loss in potency compared to WT,"CB2R-S285^7.39A; S285A mutant vs WT, [35S]GTPγS",15 fold
same,Emax (%),"CB2R-S285^7.39A; S285A mutant, at 10 µM compared to WT",unaffected
same,Agonist-mediated activation,CB1R I267ECL2L [8],0.8 ± 0.0 fold over its basal
same,"Displacement (%) of [3H]CP55,940",CB1R-H270^ECL2L [9],46 ± 3%
same,"percentage specific [3H]CP55,940 binding",CB1R-H270^ECL2L [9],48.81 percentage and 55.24 percentage and 57.51 percentage
same,Emax,CB2R-I110^3.29L,122 ± 12%
same,[35S]GTPγS binding,CB2R-I110^3.29L; log [ligand] (M) -5,144.00 percentage of WT and 101.90 percentage of WT and 119.46 percentage of WT
same,[35S]GTPγS binding,CB2R-I110^3.29L; log [ligand] (M) -6,62.70 percentage of WT and 56.80 percentage of WT and 71.03 percentage of WT
same,[35S]GTPγS binding,CB2R-I110^3.29L; log [ligand] (M) -7,34.90 percentage of WT and 47.80 percentage of WT and 66.79 percentage of WT
same,[35S]GTPγS binding,CB2R-I110^3.29L; log [ligand] (M) -8,0.30 percentage of WT and -7.00 percentage of WT and 4.82 percentage of WT
same,[35S]GTPγS binding,CB2R-I110^3.29L; log [ligand] (M) -9,-41.10 percentage of WT and -11.80 percentage of WT and -14.01 percentage of WT
same,[35S]GTPγS binding,CB2R-I110^3.29L; log [ligand] (M) -10,-13.40 percentage of WT and -17.60 percentage of WT and 8.27 percentage of WT
same,"Displacement (%) of [3H]CP55,940","CB1R QuadrupleTM1,7 [10]",-13 ± 22%
same,"percentage specific [3H]CP55,940 binding","CB1R QuadrupleTM1,7 [10]",134.56 percentage and 68.97 percentage and 134.64 percentage
same,Emax,CB2R-I110^3.29A,27 ± 10%
same,[35S]GTPγS binding,CB2R-I110^3.29A; log [ligand] (M) -5,7.61 percentage of WT and 53.50 percentage of WT and 22.50 percentage of WT and 24.96 percentage of WT
same,[35S]GTPγS binding,CB2R-I110^3.29A; log [ligand] (M) -6,-2.63 percentage of WT and 15.83 percentage of WT and -2.10 percentage of WT and 11.35 percentage of WT
same,[35S]GTPγS binding,CB2R-I110^3.29A; log [ligand] (M) -7,-21.19 percentage of WT and 26.20 percentage of WT and -0.60 percentage of WT and -1.65 percentage of WT
same,[35S]GTPγS binding,CB2R-I110^3.29A; log [ligand] (M) -8,-20.10 percentage of WT and 21.60 percentage of WT and -13.80 percentage of WT and -17.12 percentage of WT
same,[35S]GTPγS binding,CB2R-I110^3.29A; log [ligand] (M) -9,-21.53 percentage of WT and -16.40 percentage of WT and -20.30 percentage of WT and -26.64 percentage of WT
same,[35S]GTPγS binding,CB2R-I110^3.29A; log [ligand] (M) -10,-16.86 percentage of WT and 2.60 percentage of WT and -15.20 percentage of WT and -22.40 percentage of WT
same,Emax,CB2R-L185^ECL2H,146 ± 8%
same,Emax,CB2R-H95^2.65A,67 ± 16%
